The values below come from PubChem BioAssay (NCI).

SMILES strings stand for the structures.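 A five-concentration, 48-hour dose response in 96-well plates underlies each endpoint, interpolated linearly between surrounding concentrations. Abbreviation: GI50, concentration required for 50% inhibition of growth. TGI: total growth inhibition.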 Some results are limits rather than exact numbers.

Test in all cases: NCI-60 cell line screen, 48 h
Assay [1] relates to OVCAR-3 ovarian.
In assay [2] the test system is DU-145 prostate.
Assay [3] concerns SF-539 CNS.
The test system of assay [4] is OVCAR-8 ovarian.
Assay [5] deals with NCI-H23 lung.
The test system of assay [6] is SNB-19 CNS.
For assay [7], the system named is NCI/ADR-RES ovarian.
In assay [8] the test system is CCRF-CEM leukemia.
Assay [9] relates to HT29 colon.
Assay [10] concerns HOP-62 NSCLC.

Take `Nc1c(C(=O)Nc2cccc(C(F)(F)F)c2)sc2nc3c(cc12)CCCCCC3`: the GI50 in [1] was 2.17 µM; in [2] it was 2.65 µM; in [3], 1.71 µM; in assay [4], 2.24 µM; in assay [5] it was 2.39 µM; in assay [6], 3.16 µM. In addition, the GI50 in assay [7] was 2.69 µM; in assay [8], 5.73 µM; in assay [9], 3.24 µM. In addition, the TGI in assay [1] was 4.88 µM; in [2], 10.2 µM; in assay [3], 3.37 µM; in [4] it was 6.82 µM; in assay [5], 10.6 µM; in [6] it was 13.1 µM. Further, the TGI in assay [7] is 10.9 µM; in assay [8], more than 100 µM; in [9] it was 32.4 µM.
Turning to `O=C1OCC2=C1C(c1cccc(Cl)c1)c1cc3c(cc1N2CCO)CCC3` (stereo not drawn), the GI50 in assay [1] was 0.0253 µM; in assay [2] it was 0.0406 µM; in assay [10], 0.0478 µM; in assay [3], 0.0361 µM; in assay [4], 0.0577 µM; in [5], 0.0481 µM. For the same compound, the GI50 is 0.0644 µM in assay [6], 0.0289 µM in assay [7], 0.0416 µM in assay [8] and 0.0313 µM in assay [9]. Further, the TGI in assay [1] amounted to 0.0666 µM; in [2], 0.425 µM; in assay [10], 14.4 µM; in [3] it was 7.53 µM; in [4], 2.98 µM; in assay [5] it was 14.3 µM. Besides, the TGI in [6] was found to be 17.3 µM; in assay [7] it was 0.108 µM; in assay [8] it was 14.1 µM; in assay [9], 0.095 µM.
`COc1ncc(-c2ccc3nccc(C#CCCCCC(=O)NO)c3c2)cc1NS(=O)(=O)c1ccc(F)cc1F`: the GI50 was 0.0651 µM in assay [1]; 0.134 µM in [2]; 0.125 µM in assay [10]; 0.0689 µM in assay [3]; 0.131 µM in assay [4]; 0.984 µM in [5]. Besides, the GI50 in [6] is 0.147 µM; in [7], 3.59 µM; in assay [8] it was 0.105 µM; in assay [9], 0.055 µM. Further, the TGI came out at 2.52 µM in assay [1]; 12.6 µM in assay [2]; 10 µM in assay [10]; 1.34 µM in assay [3]; 4.08 µM in [4]; 13 µM in assay [5]. For the same compound, the TGI in assay [6] was 5.98 µM; in [7] it was 30 µM; in assay [8], 5.65 µM; in assay [9], 10.5 µM.
Regarding `Cc1c(Cl)c(C)c(Cl)c(O)c1Cl`, the TGI was 66.5 µM in assay [1]; more than 100 µM in assay [2]; more than 100 µM in assay [10]; more than 100 µM in assay [3]; more than 100 µM in [4]; 94 µM in assay [5]. For the same compound, the TGI in [6] is more than 100 µM; in assay [7] it was 72.6 µM; in assay [8] it was more than 100 µM; in [9], more than 100 µM.
Consider `COc1cc2c(cc1[N+](=O)[O-])C(=O)C(Br)(Br)CCC2`, for which the TGI is 10.5 µM in assay [1]; 25.8 µM in assay [2]; 14.4 µM in assay [10]; 3.87 µM in assay [3]; 5.54 µM in [4]; 8.59 µM in assay [5]. Moreover, the TGI in assay [6] was determined as 19.5 µM; in [7], 7.31 µM; in assay [8], 3.35 µM; in assay [9], 11.2 µM.
On to `Cc1[nH]nc(C(=O)N/N=C/c2ccccc2Cl)c1N=NN(C)C`, for which the TGI in assay [1] was more than 100 µM; in assay [2], more than 23.4 µM; in [3], more than 29.9 µM; in [4] it was more than 100 µM; in assay [5], more than 100 µM; in assay [6], more than 100 µM. In addition, the TGI in assay [7] is more than 27.7 µM; in assay [8], more than 100 µM; in assay [9], more than 100 µM.
As to `COC(=O)c1cccc(NC(=O)c2ccc(NC3=C(Cl)C(=O)N(Cc4ccccc4)C3=O)cc2)c1`, the GI50 was 6.45 µM in assay [1]; 7.9 µM in assay [2]; 15.1 µM in assay [10]; 14.7 µM in [3]; 11.4 µM in [4]; 8.57 µM in assay [5]. The GI50 was 28.5 µM in [6], 15.9 µM in assay [7] and 21.1 µM in assay [9]. Also, the TGI in assay [1] turned out to be 25.9 µM; in assay [2] it was 25.2 µM; in [10] it was 35.4 µM; in [3] it was 29.5 µM; in assay [4] it was 32.1 µM; in assay [5], 22.4 µM. For the same compound, the TGI in [6] was more than 100 µM; in assay [7], 37.6 µM; in [9], more than 100 µM.
`O=C1c2ccc3c4c(ccc(c24)C(=O)N1CCNCc1ccccc1)C(=O)N(CCNCc1ccccc1)C3=O`: the GI50 is 1.91 µM in assay [1]; 2.76 µM in [2]; 1.91 µM in [10]; 1.88 µM in assay [3]; 1.2 µM in assay [4]; 1.86 µM in assay [5]. The GI50 in assay [6] was 2.67 µM; in assay [7], 1.81 µM; in [8], 2.51 µM. Moreover, the TGI in assay [1] was 4.16 µM; in assay [2] it was 11.4 µM; in assay [10], 4.57 µM; in assay [3], 3.64 µM; in [4], 4.26 µM; in assay [5], 3.89 µM. Besides, the TGI in assay [6] was 9.28 µM; in [7], 4.94 µM; in assay [8], more than 100 µM.
In the case of `COc1cc(C2CC(c3cccc(Nc4ccnc5cc(Cl)ccc45)c3)=NN2c2ccccc2)cc(OC)c1OC` (stereo not drawn), the GI50 in assay [1] is 8.64 µM; in [2], more than 100 µM; in assay [10] it was 3.81 µM; in [3], 3.08 µM; in [4], 7.68 µM; in assay [5] it was 64.4 µM. Also, the GI50 was more than 100 µM in [6], 5.97 µM in [7] and 6.4 µM in assay [8]. The TGI in assay [1] is more than 100 µM; in assay [2] it was more than 100 µM; in assay [10], more than 100 µM; in assay [3], 18.1 µM; in assay [4] it was more than 100 µM; in assay [5], more than 100 µM. Further, the TGI in assay [6], in assay [7] and in assay [8] was more than 100 µM in each case.
`CCN(CC)CC(O)c1cc(-c2ccc(Cl)cc2)nc2c(C)c(Cl)ccc12` (stereo not drawn): the GI50 in assay [1] was 1.51 µM; in assay [2], 1.7 µM; in [10], 1.57 µM; in [3], 1.49 µM; in assay [5] it was 1.78 µM; in assay [6] it was 1.86 µM. In addition, the GI50 is 1.71 µM in assay [7], 2.21 µM in assay [8] and 1.55 µM in [9]. The TGI in assay [1] came to 2.9 µM; in [2], 3.08 µM; in [10] it was 2.96 µM; in assay [3] it was 3.03 µM; in assay [5] it was 3.3 µM; in assay [6] it was 3.44 µM. The TGI in assay [7] came out at 3.16 µM; in [8], 5.03 µM; in assay [9], 2.94 µM.
With `CCc1ncc(CO)n1Cc1cccc2ccccc12`, the TGI in assay [1], in [2], in assay [10], in [3], in assay [4] and in assay [5] was more than 100 µM in each case. Moreover, the TGI in [6], in [7] and in assay [9] was more than 100 µM throughout.
For `Cc1cc(-c2cc(OC(=O)c3ccccc3)ccc2Cl)cc2nnc(Nc3ccc(OCCN4CCCC4)cc3)nc12`, the GI50 was 1.6 µM in [1]; 1.75 µM in assay [2]; 1.55 µM in [10]; 1.29 µM in assay [3]; 1.7 µM in [4]; 1.72 µM in [5]. In addition, the GI50 in assay [6] is 1.86 µM; in assay [7], 1.86 µM; in assay [9], 1.61 µM. Further, the TGI in assay [1] was 2.97 µM; in assay [2], 3.17 µM; in assay [10] it was 3.27 µM; in assay [3] it was 2.57 µM; in assay [4] it was 3.67 µM; in assay [5], 3.66 µM. Besides, the TGI is 3.37 µM in assay [6], 4.1 µM in [7] and 3.04 µM in [9].
Consider `CC(C)C1=CC2=C(C(=O)C1=O)C13CCCC(C)(C)C1CC2OC3=O` (stereo not drawn), for which the TGI in [1] is 38.8 µM; in [2], 44.9 µM; in [3] it was 46.3 µM; in [4], 35.4 µM; in [5], 61.7 µM; in [6], more than 100 µM. The TGI in assay [7] is 40.1 µM; in [8], 33.1 µM; in [9], 26.3 µM.
Regarding `COC(=O)c1c2c(c(C)[n+]([O-])c1C)C(=O)C(NCc1ccc(O)cc1)=CC2=O`, the GI50 in assay [1] was 0.266 µM; in assay [2], 1.75 µM; in [10] it was 1.96 µM; in [3] it was 1.68 µM; in assay [4] it was 1.08 µM; in assay [5] it was 1.43 µM. In addition, the GI50 is 2.2 µM in assay [7], 1.6 µM in assay [8] and 0.715 µM in [9]. Also, the TGI was 0.82 µM in assay [1]; 3.19 µM in assay [2]; 4.57 µM in [10]; 3.07 µM in [3]; 6.47 µM in [4]; 3.5 µM in assay [5]. The TGI in [7] was determined as 6.37 µM; in assay [8], 4.35 µM; in [9], 4.84 µM.
